The nature of data set [1]: Water solubility of peptide. Format: physicochemical. Conditions: in words, method not given.
Data set [2] deals with monkey kidney cell line Vero E6. Kind of data set: Cell viability, Vero E6. Format: cell-based. The conditions noted are these: monkey kidney cell line Vero E6 (Fig. S6).

Where no end group is shown, it is not given here.

As to KLTFLEYWAQLMQK [M3-2K], in data set [1], the water solubility entry is “improved peptide solubility”. Further, the “effect on viability of Vero E6” value in data set [2] is listed as “neither PMI-2K nor M3-2K had any effect on the viability”.

The record behind these values is article PMC8463443 (Acta Pharmaceutica Sinica. B, 2021).
